From US8952024B2, “Herbicidal pyrimidone derivatives” (E I du Pont de Nemours and Company, priority 2009, dated 2015)

Experiments:
Assay type in all cases: in vivo
[1] = test system: barnyardgrass (Echinochloa crus-galli); test: Test A pre-/postemergence plant response
How it was run: (§1)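 Visual injury rating on a 0–100 scale (0 = no effect, 100 = complete control) was made versus untreated controls after about ten days in the greenhouse. Compounds, formulated in a non-phytotoxic solvent mix containing surfactant, were sprayed preemergence onto loam/sand soil and postemergence onto one- to two-leaf plants.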

corn (Zea mays) = test: Test A pre-/postemergence plant response
How it was run: as §1

[2] = test system: giant foxtail (Setaria faberii); test: Test A pre-/postemergence plant response
How it was run: as §1

[3] = test system: large crabgrass (Digitaria sanguinalis); test: Test A pre-/postemergence plant response
How it was run: as §1

[4] = test system: morningglory (Ipomoea spp.); test: Test A pre-/postemergence plant response
How it was run: as §1

[5] = test system: pigweed (Amaranthus retroflexus); test: Test A pre-/postemergence plant response
How it was run: as §1

[6] = test system: velvetleaf (Abutilon theophrasti); test: Test A pre-/postemergence plant response
How it was run: as §1

[7] = test system: wheat (Triticum aestivum); test: Test A pre-/postemergence plant response
How it was run: as §1

[8] = test system: winter barley (Hordeum vulgare); test: Test B postemergence plant response
How it was run: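 Plants grown in peat/vermiculite medium were sprayed postemergence at 2–18 cm height (1- to 4-leaf stage). After 13–15 days in the greenhouse, response was rated visually against untreated controls on a 0–100 scale (0 no effect, 100 complete control).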

[9] = test system: barnyardgrass (Echinochloa crus-galli); test: Test B flooded paddy test; details: for Plant response rating, Flood, Barnyardgrass: 250 g ai/ha, flooded paddy test, visual rating on 0 to 100 scale (0 no effect, 100 complete control) after 13 to 15 days; for Plant response rating, Barnyardgrass: Flood (flooded paddy test), 13 to 15 days
How it was run: (§2)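 Each compound is added to standing floodwater (3 cm above soil, maintained) in pots of 2-leaf-stage plants; greenhouse exposure lasts 13–15 d before visual comparison with controls on a 0–100 control scale.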

[10] = test system: ducksalad (Heteranthera limosa); test: Test B flooded paddy test; details: for Plant response rating, Flood, Ducksalad: 250 g ai/ha, flooded paddy test, visual rating on 0 to 100 scale (0 no effect, 100 complete control) after 13 to 15 days; for Plant response rating, Ducksalad: Flood (flooded paddy test), 13 to 15 days
How it was run: as §2

rice (Oryza sativa) = test: Test B flooded paddy test; details: for Plant response rating, Flood, Rice: 250 g ai/ha, flooded paddy test, visual rating on 0 to 100 scale (0 no effect, 100 complete control) after 13 to 15 days; for Plant response rating, Rice: Flood (flooded paddy test), 13 to 15 days
How it was run: as §2

[11] = test system: umbrella sedge (Cyperus difformis); test: Test B flooded paddy test; details: for Plant response rating, Flood, Sedge, Umbrella: 250 g ai/ha, flooded paddy test, visual rating on 0 to 100 scale (0 no effect, 100 complete control) after 13 to 15 days; for Plant response rating, Sedge, Umbrella: Flood (flooded paddy test), 13 to 15 days
How it was run: as §2

[12] = Postemergence, 125 g ai/ha, 0 to 100 scale where 0 is no effect and 100 is complete control
[13] = Postemergence, 500 g ai/ha, 0 to 100 scale, 0 = no effect, 100 = complete control, approx. ten days
[14] = Preemergence, 125 g ai/ha, 0 to 100 scale, 0 = no effect, 100 = complete control
[15] = Preemergence, 500 g ai/ha, visual injury, 0 to 100 scale (0 no effect, 100 complete control), approx. ten days
[16] = Postemergence, 250 g ai/ha, scale 0 to 100 (0 no effect, 100 complete control)
[17] = 62 g ai/ha, scale of 0 to 100 where 0 is no effect and 100 is complete control
[18] = 125 g ai/ha, scale 0 to 100, 0 is no effect, 100 is complete control
[19] = Flood, 31 g ai/ha, scale 0 to 100 (0 no effect, 100 complete control)
[20] = Postemergence, 125 g ai/ha, visual injury, 0 to 100 scale (0 no effect, 100 complete control), approx. ten days
[21] = Postemergence, 62 g ai/ha, scale 0 (no effect) to 100 (complete control), 13 to 15 days
[22] = Postemergence, 125 g ai/ha, visual rating after 13 to 15 days, scale 0 (no effect) to 100 (complete control)
[23] = 62 g ai/ha, scale 0 to 100, 0 is no effect, 100 is complete control
[24] = 31 g ai/ha, scale of 0 to 100 where 0 is no effect and 100 is complete control

COCCn1c(-c2cccc(F)c2)ncc(C(=O)C2=C(O)CCCC2=O)c1=O [Compound 123]
Plant response rating, Barnyardgrass [1, 12]: 80
Plant response rating, Barnyardgrass [1, 13]: 90
Plant response rating, Barnyardgrass [1, 14]: 50
Plant response rating, Barnyardgrass [1, 15]: 100
Plant response rating, Corn (corn (Zea mays); [12]): 20
Plant response rating, Corn (corn (Zea mays); [13]): 70
Plant response rating, Corn (corn (Zea mays); [14]): 0
Plant response rating, Corn (corn (Zea mays); [15]): 30
Plant response rating, Foxtail, Giant [2, 12]: 70
Plant response rating, Foxtail, Giant [2, 13]: 80
Plant response rating, Foxtail, Giant [2, 14]: 50
Plant response rating, Foxtail, Giant [2, 15]: 100
Plant response rating, Crabgrass, Large [3, 12]: 80
Plant response rating, Crabgrass, Large [3, 13]: 90
Plant response rating, Crabgrass, Large [3, 14]: 100
Plant response rating, Crabgrass, Large [3, 15]: 100
Plant response rating, Morningglory [4, 12]: 100
Plant response rating, Morningglory [4, 13]: 100
Plant response rating, Morningglory [4, 14]: 70
Plant response rating, Pigweed [5, 12]: 100
Plant response rating, Pigweed [5, 13]: 100
Plant response rating, Pigweed [5, 14]: 90
Plant response rating, Pigweed [5, 15]: 100
Plant response rating, Velvetleaf [6, 12]: 100
Plant response rating, Velvetleaf [6, 13]: 100
Plant response rating, Velvetleaf [6, 14]: 70
Plant response rating, Velvetleaf [6, 15]: 100
Plant response rating, Wheat [7, 12]: 0
Plant response rating, Wheat [7, 13]: 20
Plant response rating, Wheat [7, 14]: 0
Plant response rating, Wheat [7, 15]: 20
Barley plant response rating (0 to 100 scale) ([8]; 62 g ai/ha, postemergence, 0 is no effect, 100 is complete control, 13 to 15 days): 10
Plant response rating, Barley ([8]; Postemergence, 31 g ai/ha, 0 to 100 scale (0 no effect, 100 complete control)): 5
Plant response rating, Barley ([8]; Postemergence, 125 g ai/ha, scale 0 to 100 (0 no effect, 100 complete control)): 25
Plant response rating, Barley [8, 16]: 50
Plant response rating, Flood, Barnyardgrass [9]: 70
Plant response rating, Barnyardgrass [9, 17]: 40
Plant response rating, Barnyardgrass [9, 18]: 55
Barnyardgrass plant response rating [9, 19]: 30
Plant response rating, Flood, Ducksalad [10]: 95
Plant response rating, Ducksalad [10, 17]: 80
Plant response rating, Ducksalad [10, 18]: 90
Ducksalad plant response rating [10, 19]: 30
Plant response rating, Flood, Rice (rice (Oryza sativa)): 40
Plant response rating, Rice (rice (Oryza sativa); [17]): 20
Plant response rating, Rice (rice (Oryza sativa); [18]): 30
Rice plant response rating (rice (Oryza sativa); [19]): 0
Plant response rating, Flood, Sedge, Umbrella [11]: 85
Plant response rating, Sedge, Umbrella [11, 17]: 70
Plant response rating, Sedge, Umbrella [11, 18]: 75
Sedge, Umbrella plant response rating [11, 19]: 40

Cc1c(Cl)cccc1-n1c(-c2ccccc2)ncc(C(=O)C2=C(O)CCCC2=O)c1=O [Compound 40]
Barnyardgrass plant response rating [1, 20]: 90
Plant response rating, Barnyardgrass [1, 13]: 90
Plant response rating, Barnyardgrass [1, 14]: 10
Plant response rating, Barnyardgrass [1, 15]: 100
Corn plant response rating (corn (Zea mays); [20]): 0
Plant response rating, Corn (corn (Zea mays); [13]): 50
Plant response rating, Corn (corn (Zea mays); [14]): 0
Plant response rating, Corn (corn (Zea mays); [15]): 0
Foxtail, Giant plant response rating [2, 20]: 90
Plant response rating, Foxtail, Giant [2, 13]: 100
Plant response rating, Foxtail, Giant [2, 14]: 50
Plant response rating, Foxtail, Giant [2, 15]: 90
Crabgrass, Large plant response rating [3, 20]: 90
Plant response rating, Crabgrass, Large [3, 13]: 100
Plant response rating, Crabgrass, Large [3, 14]: 60
Plant response rating, Crabgrass, Large [3, 15]: 100
Morningglory plant response rating [4, 20]: 50
Plant response rating, Morningglory [4, 13]: 100
Plant response rating, Morningglory [4, 14]: 10
Plant response rating, Morningglory [4, 15]: 80
Pigweed plant response rating [5, 20]: 100
Plant response rating, Pigweed [5, 13]: 100
Plant response rating, Pigweed [5, 14]: 70
Plant response rating, Pigweed [5, 15]: 90
Velvetleaf plant response rating [6, 20]: 100
Plant response rating, Velvetleaf [6, 13]: 100
Plant response rating, Velvetleaf [6, 14]: 70
Plant response rating, Velvetleaf [6, 15]: 100
Wheat plant response rating [7, 20]: 0
Plant response rating, Wheat [7, 13]: 0
Plant response rating, Wheat [7, 14]: 0
Plant response rating, Wheat [7, 15]: 0
Plant response rating, Barley ([8]; Postemergence, 31 g ai/ha, scale 0 to 100 (0 no effect, 100 complete control)): 0
Plant response rating, Barley [8, 21]: 0
Plant response rating, Barley [8, 22]: 10
Barley plant response rating ([8]; Postemergence, 250 g ai/ha, scale 0 to 100): 10
Plant response rating, Flood, Barnyardgrass [9]: 40
Plant response rating, Barnyardgrass [9, 23]: 0
Plant response rating, Flood, Ducksalad [10]: 90
Plant response rating, Ducksalad [10, 23]: 0
Plant response rating, Flood, Rice (rice (Oryza sativa)): 25
Plant response rating, Rice (rice (Oryza sativa); [23]): 0
Plant response rating, Flood, Sedge, Umbrella [11]: 85
Plant response rating, Sedge, Umbrella [11, 23]: 70

Cc1cc(-n2c(-c3ccccc3)ncc(C(=O)C3=C(O)CCCC3=O)c2=O)ccc1F [Compound 53]
Barnyardgrass plant response rating [1, 20]: 90
Plant response rating, Barnyardgrass [1, 13]: 100
Plant response rating, Barnyardgrass [1, 14]: 40
Plant response rating, Barnyardgrass [1, 15]: 100
Corn plant response rating (corn (Zea mays); [20]): 0
Plant response rating, Corn (corn (Zea mays); [13]): 80
Plant response rating, Corn (corn (Zea mays); [14]): 0
Plant response rating, Corn (corn (Zea mays); [15]): 0
Foxtail, Giant plant response rating [2, 20]: 90
Plant response rating, Foxtail, Giant [2, 13]: 90
Plant response rating, Foxtail, Giant [2, 14]: 70
Plant response rating, Foxtail, Giant [2, 15]: 100
Crabgrass, Large plant response rating [3, 20]: 90
Plant response rating, Crabgrass, Large [3, 13]: 100
Plant response rating, Crabgrass, Large [3, 14]: 90
Plant response rating, Crabgrass, Large [3, 15]: 100
Morningglory plant response rating [4, 20]: 100
Plant response rating, Morningglory [4, 13]: 100
Plant response rating, Morningglory [4, 14]: 80
Plant response rating, Morningglory [4, 15]: 90
Pigweed plant response rating [5, 20]: 100
Plant response rating, Pigweed [5, 13]: 100
Plant response rating, Pigweed [5, 14]: 90
Plant response rating, Pigweed [5, 15]: 100
Velvetleaf plant response rating [6, 20]: 100
Plant response rating, Velvetleaf [6, 13]: 100
Plant response rating, Velvetleaf [6, 14]: 80
Plant response rating, Velvetleaf [6, 15]: 90
Wheat plant response rating [7, 20]: 30
Plant response rating, Wheat [7, 13]: 50
Plant response rating, Wheat [7, 14]: 0
Plant response rating, Wheat [7, 15]: 10
Plant response rating, Barley ([8]; 31 g ai/ha, postemergence, scale 0 to 100, 0 is no effect, 100 is complete control): 0
Plant response rating, Barley [8, 21]: 50
Plant response rating, Barley [8, 22]: 70
Plant response rating, Barley [8, 16]: 70
Plant response rating, Flood, Barnyardgrass [9]: 75
Plant response rating, Barnyardgrass [9, 24]: 20
Plant response rating, Barnyardgrass [9, 17]: 40
Plant response rating, Barnyardgrass [9, 18]: 55
Plant response rating, Flood, Ducksalad [10]: 75
Plant response rating, Ducksalad [10, 24]: 40
Plant response rating, Ducksalad [10, 17]: 65
Plant response rating, Ducksalad [10, 18]: 75
Plant response rating, Flood, Rice (rice (Oryza sativa)): 85
Plant response rating, Rice (rice (Oryza sativa); [24]): 15
Plant response rating, Rice (rice (Oryza sativa); [17]): 20
Plant response rating, Rice (rice (Oryza sativa); [18]): 60
Plant response rating, Flood, Sedge, Umbrella [11]: 90
Plant response rating, Sedge, Umbrella [11, 24]: 40
Plant response rating, Sedge, Umbrella [11, 17]: 85
Plant response rating, Sedge, Umbrella [11, 18]: 90
